Read-outs that look alike come from different tables or passages of the source.
Assays:
Type in all cases: in vivo
[1] = system: Ditylenchus Myceliophagus; experiment: Acaricide activity, Ditylenchus Myceliophagus; details: 24 h, read-out: Percent of mortality after 24 hours
Protocol: In an apparatus containing 10 ml of an aqueous solution of the test product, 0.5 ml of water containing about 2000 acariens of Ditylenchus Myceliophagus were added thereto and the percent of mortality was determined by a binocular magnifying glass after 24 hours.

Musca domestica = experiment: Topical application activity against Musca domestica; details: read-out: percent of mortality
Protocol: d. Activity against Musca domestica
This topical application test consisted of placing a microliter of an acetone solution of the test product on the dorsal thorax of Musca domestica after having been put to sleep with ether. The insects were held at 20° C and 50% relative humidity and were fed milk and water.

Musca domestica larvae = experiment: Contact-ingestion test against Musca domestica larvae; details: read-out: percent of mortality
Protocol: g. Activity against Musca domestica larvae
This contact-ingestion test consisted of placing 2 ml of an acetone solution of different concentrations of the test product on 1 g of bran placed in a watch glass and the solvent was evaporated. The treated bran was placed in a plastic dish and was admixed with 2 ml of milk. 20 3 to 4 day old larvae of Musca domestica were added to the bran and were held at 20° C and 30% relative humidity and 3 tests were conducted for each concentration.

Spodoptera littoralis = experiment: Ingestion test against Spodoptera littoralis caterpillars; details: po, read-out: percent of mortality
Protocol: e. Activity against Spodoptera littoralis
This test was effected with Spodoptera littoralis caterpillars 1 to 1.5 cm long and an average of 10 days old. In this ingestion test, 4 ml of an acetone solution of the test products was placed on lettuce rings with an 8 mm diameter which were placed in closed plastic dishes with a 5 cm diameter. 15 caterpillars were placed in each dish and were held at 20° C and 50% relative humidity and were fed when the insects had eaten the treated lettuce ring.

Sitophilus granarius = experiment: Topical application test against Sitophilus granarius; details: read-out: percent mortality
Protocol: c. Test against Sitophilus granarius
This topical application test comprised preparing the test compounds in acetone solution at concentrations of 5000, 500 and 50 mg of the active compound per liter and 0.2 μl of the solutions were applied to the ventral thorax of 50 Sitophilus granarius for each concentration.

Drosophila melanogaster = experiment: Vapor activity against Drosophila melanogaster; details: inhaled or nasal, read-out: percentage of mortality
Protocol: a. Activity against Drosophila melanogaster
This test measures the vapor activity of the compounds and the less than 48 hours old insects were placed in a Petri dish with a 10 cm diameter connected by a tergal screen to a crystallizer of the same diameter in which the test compound in acetone solution is placed. The said solution is evaporated after the insects have been placed and 3 tests with 25 insects were run for each concentration. The results are expressed in Table I as a percentage of mortality after 1, 2, 4 and 6 hours.

Blattella germanica = experiment: Topical application activity against Blattella germanica; details: read-out: percent of mortality
Protocol: b. Activity against Blattella germanica
This test was a topical application in which adult male Blattella germanica received 2 microliters of an acetone solution of the test products between the second and third pair of paws. After this treatment, the test insects were held in a dim light at 20° C and were fed. The results expressed as percent of mortality in Table II were read 24 and 48 hours and 5 days after the treatment.

Meloidogynes spec = experiment: Nematocidal activity against Meloidogynes spec (tomato root galls); details: 25 Kg/ha
Protocol: a. Activity against Meloidogynes spec
A volume of about 3 liters of dirt infested with Meloidogynes spec was placed in a plastic sack. Nematocidal treatments are considered effective to a depth of 30 cm, a volume of 3 liters of dirt corresponding to a surface area of 100 cm^ 2 or 10^-^6 ha (since 100 cm^ 2 × 30 cm = 3000 ml or 3 liters). Each volume of infested dirt received 100 ml of an aqueous suspension containing 0.250 g of the test product (corresponding to 250 Kg/ha) and the controls received only 100 ml of water. The plastic sacks containing the dirt were immediately sealed after the treatment and then agitated to obtain a good distribution of the product. Two weeks after the treatment, the sacks were opened and the dirt was used to plant 3 tomato plants of St. Pierre variety. The plants used were raised in the greenhouse with dirt sterilized with heat to obtain plants free of nematodes. Three plants were used for each test which was run 6 times for each treatment. Two months after planting the tomatoes were removed from the dirt and the efficacy was determined by counting the number of galls observed on the roots. A correlation between the population of Meloidogynes in the pot and the number of galls exists.

## CCOc1nc(OP(=S)(OCC)OCC)c(C#N)s1 [A, 2-ethoxy-4-diethoxythiophosphoryloxy-5-cyano-thiazole]
[1]; 0.001 g/l
  mortality at 1 µg/mL: 81.8%
[1]; 0.010 g/l
  mortality at 10 µg/mL: 91.6%
[1]; 0.1 g/l
  mortality at 100 µg/mL: 100%
Musca domestica; 1 H
  mortality at 500 ppm: 91%
  mortality at 2500 ppm: 100%
  mortality at 5000 ppm: 100%
Musca domestica; 24 H
  mortality at 500 ppm: 94%
  mortality at 2500 ppm: 100%
  mortality at 5000 ppm: 100%
Musca domestica larvae; 48 H
  mortality at 500 ppm: 37%
  mortality at 5000 ppm: 64%
Musca domestica larvae; 192 h, 8 Days
  mortality at 500 ppm: 63%
  mortality at 5000 ppm: 92%
Spodoptera littoralis; 1 H, 62.5 ppm, ingestion
  mortality at 62.5 ppm: 0%
Spodoptera littoralis; 1 H, 125 ppm, ingestion
  mortality at 125 ppm: 0%
Spodoptera littoralis; 1 H, 250 ppm, ingestion
  mortality at 250 ppm: 0%
Spodoptera littoralis; 48 H, 62.5 ppm, ingestion
  mortality at 62.5 ppm: 80%
Spodoptera littoralis; 48 H, 125 ppm, ingestion
  mortality at 125 ppm: 100%
Spodoptera littoralis; 48 H, 250 ppm, ingestion
  mortality at 250 ppm: 100%
Spodoptera littoralis; 24 h
  mortality at 62.5 ppm: 60%
  mortality at 125 ppm: 100%
  mortality at 250 ppm: 90%
Sitophilus granarius; 4 H
  mortality at 50 ppm: 0%
  mortality at 500 ppm: 100%
  mortality at 5000 ppm: 100%
Sitophilus granarius; 24 H
  mortality at 50 ppm: 0%
  mortality at 500 ppm: 100%
  mortality at 5000 ppm: 100%
Sitophilus granarius; 120 h, 5 Days
  mortality at 50 ppm: 0%
  mortality at 500 ppm: 100%
  mortality at 5000 ppm: 100%
Drosophila melanogaster; 1 H
  mortality at 5 ppm: 99%
  mortality at 50 ppm: 100%
  mortality at 500 ppm: 100%
Drosophila melanogaster; 4 H
  mortality at 5 ppm: 100%
  mortality at 50 ppm: 100%
  mortality at 500 ppm: 100%
Drosophila melanogaster; 6 H
  mortality at 5 ppm: 100%
  mortality at 50 ppm: 100%
  mortality at 500 ppm: 100%
Blattella germanica; 24 H
  mortality at 312.5 ppm: 65%
Blattella germanica; 24 H, 625 ppm
  mortality at 625 ppm: 100%
Blattella germanica; 24 H, 1250 ppm
  mortality at 1250 ppm: 100%
Blattella germanica; 48 H
  mortality at 312.5 ppm: 70%
Blattella germanica; 48 H, 625 ppm
  mortality at 625 ppm: 100%
Blattella germanica; 48 H, 1250 ppm
  mortality at 1250 ppm: 100%
Blattella germanica; 120 h
  mortality at 625 ppm: 30%
  mortality at 1250 ppm: 100%

## CCOc1nc(OP(=O)(OC)OC)c(C#N)s1 [Compound D, 2-ethoxy-4-dimethoxyphosphoryloxy-5-cyano-thiazole]
Musca domestica; 24 H
  mortality at 5000 ppm: 64%
Musca domestica larvae; 192 h, 8 Days
  mortality at 5000 ppm: 90%
Sitophilus granarius; 4 H
  mortality at 5000 ppm: 100%
Sitophilus granarius; 24 H
  mortality at 5000 ppm: 100%
Sitophilus granarius; 120 h, 5 Days
  mortality at 5000 ppm: 100%
Meloidogynes spec
  Relative efficacity in % as compound to controls: 52.8%
Meloidogynes spec; control 44.4
  Number of galls per foot: 31.25
Meloidogynes spec; control 222
  Total number of galls: 125
Drosophila melanogaster; 2 H
  mortality at 500 ppm: 100%
Drosophila melanogaster; 6 H
  mortality at 500 ppm: 100%
Blattella germanica; 24 H
  mortality at 5000 ppm: 100%
Blattella germanica; 48 H
  mortality at 5000 ppm: 100%
Blattella germanica; 120 h, 5 Days
  mortality at 5000 ppm: 100%

Reference: US4020076A, “Novel phosphoryloxy-thiazoles” (priority 1974, dated 1977)
